The record followed here is US6706664B1, “Benzoxazole compounds, process for the preparation thereof and herbicides” (UBE Industries, Ltd., priority 1999, dated 2004).

Common to all, as to set-up: key: 0: normal development; 1: Less damaged; 2: Slightly damaged; 3: Moderately damaged; 4: Severely damaged; 5: All killed
One experiment concerns flat sedge. In words: Herbicidal test for paddy field. To be noted: paddy field pot, 500 g/ha dropwise at 1.5 leaf stage of barnyardgrass, 3 weeks, rank vs non-treated. The format is in vivo, Cyperus serotinus. Put shortly: (§1)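 Flooded pots (3 cm water) of alluvial soil were sown with seeds or tubers, and wettable-powder formulations in 0.05% surfactant water were dripped in at 500 g/ha at the 1.5-leaf stage of barnyardgrass. Plants were kept 3 weeks in a glasshouse at an average 25° C. Damage was scored 0 (normal) to 5 (all killed) against untreated controls.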

For another experiment, the system named is annual bluegrass. Put plainly: Soil treatment test for upland field. To be noted: 500 g/ha, glass house 25° C., 3 weeks. The format is in vivo, Poa annua. Summed up:
(§2)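 Seeds planted in Wagner pots of Ube soil (alluvial) and covered. Wettable powder diluted in 0.05% surfactant water, sprayed uniformly onto soil at 500 g/ha effective rate. Grown 3 weeks, glasshouse, mean 25° C, then damage rated visually 0–5.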

The next experiment has as its system young rice plant. Put plainly: Herbicidal test for paddy field. Type of experiment: in vivo. The conditions noted are these: paddy field pot, 500 g/ha dropwise at 1.5 leaf stage of barnyardgrass, 3 weeks, rank vs non-treated. Put shortly: as §1
The next experiment has as its system sugar beat. In words: Foliar spread test for upland field. Type of experiment: in vivo. The conditions noted are these: foliar spray 500 ppm, 3 weeks, rank vs non-treated. Summed up: (§3)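 Crop seeds sown in volcanic ash soil in Wagner pots were raised about 2 weeks in a glasshouse, then sprayed with wettable-powder formulations diluted to 500 ppm in water with 0.5% surfactant. After 3 weeks at an average 25° C., injury was scored 0 (normal) to 5 (all killed).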

In a further experiment the test system is solgum. In words: Foliar spread test for upland field. The format is in vivo. The conditions noted are these: foliar spray 500 ppm, 3 weeks, rank vs non-treated. Summed up:
as §3

In a further experiment the test system is soybean. Put plainly: Foliar spread test for upland field. Type of experiment: in vivo. The conditions noted are these: foliar spray 500 ppm, 3 weeks, rank vs non-treated. Summed up: as §3
For a further experiment, the system named is corn. In words: Foliar spread test for upland field. Type of experiment: in vivo. To be noted: foliar spray 500 ppm, 3 weeks, rank vs non-treated. Put shortly: as §3
A further experiment has as its system cotton. Put plainly: Foliar spread test for upland field. Type of experiment: in vivo. The conditions noted are these: foliar spray 500 ppm, 3 weeks, rank vs non-treated. Put shortly:
as §3

For a further experiment, the system named is wheat. In words: Foliar spread test for upland field. Type of experiment: in vivo. To be noted: foliar spray 500 ppm, 3 weeks, rank vs non-treated. Put shortly: as §3
The test system of experiment [1] is blackgrass. In words: Foliar spread test for upland field. The conditions noted are these: foliar spray 500 ppm, 3 weeks, rank vs non-treated. The format is in vivo, Alopecurus aegualis. Summed up:
(§4)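 Crops and weeds grown about 2 weeks in volcanic ash soil in a glasshouse, then sprayed with wettable-powder formulations diluted to 500 ppm in water with 0.5% surfactant. After 3 weeks at 25 °C, injury scored visually 0 (normal) to 5 (all killed).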

A further experiment deals with livid amaranth. In words: Foliar spread test for upland field. Type of experiment: in vivo, Amaranthus lividus. To be noted: foliar spray 500 ppm, 3 weeks, rank vs non-treated. Put shortly:
as §4

The subject of another experiment is common lambsquartes. In words: Soil treatment test for upland field. The format is in vivo, Chenopodium album. To be noted: 500 g/ha, glass house 25° C., 3 weeks. Summed up:
as §2

Experiment [2] has as its system blackgrass. Put plainly: Soil treatment test for upland field. The format is in vivo, Alopecurus aegualis. The conditions noted are these: 500 g/ha, glass house 25° C., 3 weeks. Put shortly:
as §2

The next experiment relates to barnyardgrass. Put plainly: Foliar spread test for upland field. The format is in vivo, Echinochloa crusgalli. To be noted: foliar spray 500 ppm, 3 weeks, rank vs non-treated. Put shortly:
as §4

A further experiment relates to bulrush. Put plainly: Herbicidal test for paddy field. Type of experiment: in vivo, Scrips juncoides. The conditions noted are these: paddy field pot, 500 g/ha dropwise at 1.5 leaf stage of barnyardgrass, 3 weeks, rank vs non-treated. Put shortly:
as §1

With `CCC(Oc1cccc(C(F)(F)F)c1)c1nc2cc(C#N)ccc2o1` (centres unmarked) [Compound 190], in the experiment with flat sedge, the “Effect Flat sedge” value is listed as 3. The “Effects Annual bluegrass” value with annual bluegrass amounted to 5. Moreover, the “Effect Young rice plant” value in the experiment with young rice plant came to 3. In addition, the “Effects Sugar beat” value in the experiment with sugar beat came out at 3. Besides, in the experiment on solgum, the “Effects Solgum” value amounted to 3. Also, the “Effects Soybean” value in the experiment on soybean is listed as 5. Besides, the “Effects Corn” value in the experiment with corn is given as 2. Also, the “Effects Cotton” value with cotton was 3. In addition, the “Effects Wheat” value in the experiment on wheat is 2. In addition, the “Effects Blackgrass” value in the experiment on blackgrass [1] and with blackgrass [2] was 3 each time. Further, in the experiment with livid amaranth, the “Effects Livid amaranth” value is reported as 5. Besides, the “Effects Common lambsquarters” value in the experiment with common lambsquartes is recorded as 4. In addition, the “Effects Barnyardgrass” value in the experiment with barnyardgrass came to 3.

`CCC(Oc1cccc(C(F)(F)F)c1)c1nc2cc(Br)ccc2o1` (centres unmarked) [Compound 166]: the “Effect Flat sedge” value in the experiment on flat sedge is reported as 4. Besides, the “Effects Annual bluegrass” value in the experiment with annual bluegrass is 5. For the same compound, the “Effect Young rice plant” value in the experiment on young rice plant was 1. Moreover, the “Effects Sugar beat” value in the experiment with sugar beat was 4. Moreover, in the experiment with solgum, the “Effects Solgum” value is 1. Also, the “Effects Soybean” value in the experiment on soybean was 4. Moreover, in the experiment with corn, the “Effects Corn” value turned out to be 3. The “Effects Cotton” value with cotton is reported as 2. In addition, the “Effects Wheat” value in the experiment on wheat is 1. Moreover, the “Effects Blackgrass” value is on record as 1 in the experiment with blackgrass [1] and 3 in the experiment on blackgrass [2]. Besides, in the experiment on livid amaranth, the “Effects Livid amaranth” value is listed as 4. Besides, in the experiment with common lambsquartes, the “Effects Common lambsquarters” value turned out to be 2. Also, the “Effects Barnyardgrass” value in the experiment on barnyardgrass was determined as 1.

As for `CCCC(Oc1cccc(C(F)(F)F)c1)c1nc2cc(C#N)ccc2o1` (centres unmarked) [Compound 192], the “Effect Flat sedge” value in the experiment with flat sedge is recorded as 4. Besides, in the experiment with bulrush, the “Effect Bulrush” value is reported as 4. Further, the “Effects Annual bluegrass” value in the experiment on annual bluegrass is recorded as 5. Moreover, the “Effect Young rice plant” value in the experiment on young rice plant is recorded as 1. Also, in the experiment on sugar beat, the “Effects Sugar beat” value came to 4. In addition, the “Effects Solgum” value in the experiment with solgum was found to be 2. Moreover, in the experiment with soybean, the “Effects Soybean” value amounted to 3. In the experiment on corn, the “Effects Corn” value was 2. For the same compound, the “Effects Cotton” value with cotton came out at 3. Also, in the experiment on wheat, the “Effects Wheat” value is on record as 2. The “Effects Blackgrass” value in the experiment on blackgrass [1] was determined as 2; in the experiment on blackgrass [2], 5. Besides, in the experiment on livid amaranth, the “Effects Livid amaranth” value is recorded as 4. The “Effects Common lambsquarters” value with common lambsquartes is 5. In the experiment with barnyardgrass, the “Effects Barnyardgrass” value is given as 2.

As for `CCC(Oc1ccc(F)c(C(F)(F)F)c1)c1nc2cc(Cl)c(C)cc2o1` (centres unmarked) [Compound 340], the “Effect Flat sedge” value in the experiment with flat sedge is 2. For the same compound, the “Effect Bulrush” value with bulrush is on record as 4. Besides, in the experiment on annual bluegrass, the “Effects Annual bluegrass” value is reported as 5. In the experiment on young rice plant, the “Effect Young rice plant” value is listed as 0. The “Effects Sugar beat” value in the experiment with sugar beat came to 3. The “Effects Solgum” value with solgum was determined as 2. In the experiment with soybean, the “Effects Soybean” value is reported as 3. In addition, in the experiment with corn, the “Effects Corn” value was determined as 2. For the same compound, the “Effects Cotton” value in the experiment on cotton stood at 3. The “Effects Wheat” value in the experiment on wheat is reported as 2. Further, the “Effects Blackgrass” value was 2 with blackgrass [1] and 4 in the experiment with blackgrass [2]. Also, the “Effects Livid amaranth” value in the experiment on livid amaranth is given as 4. Also, the “Effects Common lambsquarters” value with common lambsquartes is given as 5. Besides, the “Effects Barnyardgrass” value in the experiment with barnyardgrass amounted to 2.

As for `CCC(Oc1ccc(F)c(C(F)(F)F)c1)c1nc2cc([N+](=O)[O-])ccc2o1` (centres unmarked) [Compound 177], the “Effect Flat sedge” value in the experiment with flat sedge was 3. Moreover, the “Effect Bulrush” value with bulrush is 5. Moreover, the “Effects Annual bluegrass” value with annual bluegrass came out at 5. In the experiment on young rice plant, the “Effect Young rice plant” value is 2. In the experiment on solgum, the “Effects Solgum” value stood at 2. In addition, the “Effects Soybean” value in the experiment with soybean was determined as 5. In addition, in the experiment with corn, the “Effects Corn” value turned out to be 2. For the same compound, the “Effects Cotton” value in the experiment with cotton amounted to 3. Further, in the experiment with wheat, the “Effects Wheat” value was found to be 2. In addition, the results for the “Effects Blackgrass” value with blackgrass [1] and in the experiment on blackgrass [2] were 2 and 5, respectively. Besides, in the experiment with livid amaranth, the “Effects Livid amaranth” value was 5. In the experiment on common lambsquartes, the “Effects Common lambsquarters” value amounted to 4. In addition, in the experiment on barnyardgrass, the “Effects Barnyardgrass” value was 2.

For `CCC(Oc1ccc(F)c(C(F)(F)F)c1)c1nc2cc(F)c(F)cc2o1` (centres unmarked) [Compound 284], the “Effect Flat sedge” value in the experiment on flat sedge is 4. Moreover, the “Effect Bulrush” value in the experiment on bulrush worked out at 4. The “Effects Annual bluegrass” value with annual bluegrass is listed as 5. Further, the “Effect Young rice plant” value in the experiment on young rice plant came to 2. In addition, the “Effects Sugar beat” value with sugar beat stood at 4. The “Effects Solgum” value with solgum is given as 3. Moreover, the “Effects Soybean” value with soybean amounted to 5. In addition, the “Effects Corn” value in the experiment on corn was found to be 3. In addition, in the experiment with cotton, the “Effects Cotton” value came out at 3. Besides, the “Effects Wheat” value with wheat was 2. Further, the figures for the “Effects Blackgrass” value with blackgrass [1] and with blackgrass [2] were 2 and 5, respectively. In addition, the “Effects Livid amaranth” value with livid amaranth was 5. In the experiment on common lambsquartes, the “Effects Common lambsquarters” value was 4. The “Effects Barnyardgrass” value with barnyardgrass is given as 1.

For the compound `CCC(Oc1cccc(OC(F)(F)F)c1)c1nc2cc([N+](=O)[O-])ccc2o1` (centres unmarked) [Compound 450], the “Effect Flat sedge” value with flat sedge worked out at 3. The “Effect Bulrush” value in the experiment with bulrush came out at 4. Moreover, the “Effects Annual bluegrass” value in the experiment with annual bluegrass stood at 5. For the same compound, in the experiment on young rice plant, the “Effect Young rice plant” value amounted to 1. Further, the “Effects Sugar beat” value in the experiment with sugar beat worked out at 5. For the same compound, in the experiment on solgum, the “Effects Solgum” value is recorded as 3. Besides, the “Effects Soybean” value in the experiment on soybean was 4. For the same compound, in the experiment with corn, the “Effects Corn” value stood at 3. Also, the “Effects Cotton” value in the experiment on cotton turned out to be 5. The “Effects Wheat” value in the experiment on wheat was 2. Moreover, the entries for the “Effects Blackgrass” value with blackgrass [1] and in the experiment on blackgrass [2] were 3 and 5, respectively. Also, the “Effects Livid amaranth” value in the experiment on livid amaranth came out at 4. In addition, in the experiment on common lambsquartes, the “Effects Common lambsquarters” value came to 4. Also, the “Effects Barnyardgrass” value in the experiment with barnyardgrass stood at 3.

For the compound `CCC(Oc1cccc(C(F)(F)F)c1)c1nc2cc(F)ccc2o1` (centres unmarked) [Compound 120], in the experiment on flat sedge, the “Effect Flat sedge” value is recorded as 2. Besides, in the experiment on bulrush, the “Effect Bulrush” value came out at 3. The “Effects Annual bluegrass” value in the experiment with annual bluegrass stood at 5. Further, the “Effect Young rice plant” value in the experiment with young rice plant came to 1. The “Effects Sugar beat” value in the experiment on sugar beat was determined as 5. Further, the “Effects Solgum” value with solgum is 2. Also, in the experiment on soybean, the “Effects Soybean” value came to 5. In the experiment on corn, the “Effects Corn” value came out at 3. Moreover, the “Effects Cotton” value in the experiment with cotton amounted to 2. Also, the “Effects Wheat” value in the experiment on wheat is 2. The “Effects Blackgrass” value was found to be 2 in the experiment with blackgrass [1] and 3 with blackgrass [2]. Also, the “Effects Livid amaranth” value in the experiment with livid amaranth was found to be 5. Further, the “Effects Common lambsquarters” value in the experiment on common lambsquartes is 4. Besides, in the experiment with barnyardgrass, the “Effects Barnyardgrass” value is 1.

Consider `CCC(Oc1ccc(Cl)c(C(F)(F)F)c1)c1nc2cc(F)ccc2o1` (centres unmarked) [Compound 441], for which the “Effect Flat sedge” value with flat sedge came to 2. In addition, the “Effects Annual bluegrass” value in the experiment with annual bluegrass was found to be 5. In addition, the “Effect Young rice plant” value in the experiment with young rice plant stood at 1. The “Effects Sugar beat” value in the experiment with sugar beat is 4. Also, the “Effects Solgum” value in the experiment with solgum was 2. In addition, in the experiment with soybean, the “Effects Soybean” value amounted to 3. Moreover, the “Effects Corn” value in the experiment on corn was found to be 2. Besides, the “Effects Cotton” value in the experiment on cotton worked out at 3. The “Effects Wheat” value in the experiment with wheat came to 2. Moreover, the “Effects Blackgrass” value in the experiment on blackgrass [1] is 2; in the experiment on blackgrass [2], 3. Besides, the “Effects Livid amaranth” value with livid amaranth amounted to 3. In addition, the “Effects Common lambsquarters” value in the experiment on common lambsquartes worked out at 4. The “Effects Barnyardgrass” value in the experiment on barnyardgrass is listed as 2.
